Test [1] concerns the target T1, GPX4 (Homo sapiens, UniProt P36969).
T1 sequence (P36969 28-197): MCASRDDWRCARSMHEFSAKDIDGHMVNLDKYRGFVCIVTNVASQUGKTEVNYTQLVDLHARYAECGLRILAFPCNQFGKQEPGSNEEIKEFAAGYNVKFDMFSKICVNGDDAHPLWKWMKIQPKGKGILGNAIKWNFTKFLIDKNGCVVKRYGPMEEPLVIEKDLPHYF
Put plainly: coupled glutathione reductase / NADPH assay, […] nm. Type of test: biochemical.

Test [2] concerns the target T2, GPX4 (residues 28-197) (Homo sapiens, UniProt P36969).
T2 sequence (P36969 28-197): T1 sequence (P36969 28-197)
Put plainly: SPR. Type of test: binding.

Broadly, the IC50 is the midpoint of a concentration-inhibition curve. A high value points to a need for much substance. For orientation: Kd means the free concentration of one partner at which half of the binding sites on the other are occupied at equilibrium, for simple one-to-one binding. Low values mean a tighter complex, high ones a looser complex.

In turn, `COC(=O)c1ccc(C)c(-c2ccc(/C=C3\SC(=O)N(Cc4ccc(F)cc4)C3=O)o2)c1` [DP037] came in with an IC50 in test [1] greater than 100 µM.
As to `Cc1ccc(C(=O)O)cc1-c1ccc(/C=C2\SC(=O)N(Cc3ccc(F)cc3)C2=O)o1` [DP021], in test [2], the Kd is 1.83 µM. This compound displayed an IC50 in test [1] of 4.17 µM.
